What was measured:
Assay type in all cases: cell-based, human
[1] = test system: MDA-MB-231 breast cancer cells; assay: Exosome release by acetylcholinesterase (AchE) assay, MDA-MB-231; conditions: for average AChE concentration day 1 to 5: MDA-MB-231 cells, five-day treatment
Method: 1-6. Exosome isolation and purification. Exosomes were isolated from breast cancer cells by differential centrifugation as previously described (Ali SA. et al., 2010). Untreated tumor cells were used as a control. Briefly, the above treated and untreated cell culture supernatants were centrifuged at 400×g for 10 minutes. The supernatants were transferred to a clear tube and centrifuged at 10,000×g for 30 minutes. The supernatants from the second spin were ultracentrifuged at 200,000×g for 2 hours to pellet exosomes. Finally, the exosome pellets were re-suspended with PBS and stored at 4° C. until used for analysis.
1-7. Exosome characterization by acetylcholinesterase (AchE) assay. Purified exosomes were quantitated by measurement of AchE as described (Ellman et al., 1961). Briefly, a 100 mM dithibionitrobenzoic (DTNB) solution was prepared for use as a stock color indicator, and a 28.9 mg/mL acetylthiocholine iodide in PBS solution was prepared as a stock substrate. The stock substrate stock can be stored at −20° C. up to one month, while the color indicator can be stored at 4° C. for two weeks. A working solution was prepared by mixing 10 mL of PBS with 200 μL of Substrate and 500 μl of DTNB. 50 μL of each exosome sample was transferred to 96 well microtitre plates, and a standard curve was prepared using AchE from 0.98 mU/mL to 2000 mU/mL. After 50 μL of standards were added into separate wells, 200 μL of the working solution was added to all wells. After 20 min incubation, AchE activity was measured at 450 nm using a SpectroMax M5 fluorimeter.
7-5. Exosome isolation and purification. Exosomes were isolated from breast cancer cells and leukemia cells using the ExoQuick-TC Exosome Precipitation Kit (System Biosciencences [SBI], Mountain View Calif.) or the miRCURY Exosome Isolation Kit (EXIQON, Woburn, Mass.) according to the manufacturer's instructions. Untreated tumor cells were used as a control. Briefly, treated and untreated cell culture supernatants (10 mL) were centrifuged at 3000×g for 15 minutes. The resulting supernatants were transferred to a clear tube, 2 mL of ExoQuick-TC buffer was added, mixed and incubated overnight at 4° C. Following the incubation, the sample contents were centrifuged at 1500×g for 30 minutes, the supernatants were aspirated off, the pellets were centrifuged at 1500×g for 5 minutes and any further traces of supernatant were removed (SBI). Alternatively, treated and untreated cell culture supernatants were centrifuged at 10,000×g for 5 minutes to remove cell debris, supernatants (10 ml) were transferred into new tubes, and 4 mL of precipitation buffer (EXIQON) was added, and the contents were mixed and incubated at 4° C. overnight. Following the incubation, the sample contents were centrifuged at 10,000×g for 30 minutes (EXIQON). Exosome-containing pellets were re-suspended in PBS and stored at 4° C. or −80° C.
7-6. Exosome characterization by acetylcholinesterase (AchE) assay. Purified exosomes were quantitated by measurement of AchE as previously described (Huang et al., Oncotarget, 2017. 8(7): pp. 11302-11315). Briefly, 100 mM dithibionitrobenzoic (DTNB) was prepared as a stock color indicator, and prepared a stock substrate containing 28.9 mg/mL of acetylthiocholine iodide in PBS. Substrate stock can be stored at −20° C. up to one month; the stock color indicator can be stored at 4° C. for two weeks. A working solution was prepared by mixing 10 mL of PBS with 200 μL of substrate and 500 μl of DTNB. 50 μL of each exosome sample was transferred to a 96 well microtitre plate, and a standard curve for AchE concentrations was prepared using AchE from 0.98 mU/mL to 2000 mU/mL. After 50 μL of standards were added into separate wells, 200 μL of the working solution was added to each well. After a 20 min incubation, AchE activity was measured at 450 nm using a SpectroMax M5 fluorometer (FIG. 11).

[2] = test system: K562 cells; assay: Complement-mediated cell cytotoxicity assay (trypan blue), K562; conditions: for cell death under complement-positive conditions: 280 nM PEG-SMRwt-Clu or 560 nM SMRwt-CPP 60 min, then anti-CXCR4 antibody and NHS 60 min; for cell death under complement-negative conditions: 280 nM PEG-SMRwt-Clu or 560 nM SMRwt-CPP, 60 min
Method: 7-9. Complement-mediated cell cytotoxicity assay. Complement-mediated cell cytotoxicity assays were performed as previously described (Reiter et al., Mol Immunol. (1992) 29(6): p. 771-81). Briefly, MCF-7, MDA-MB-231 and K562 cells were either mock-transfected or transfected with mortalin siRNA. Cells were incubated with 1 μg/ml of anti-CXCR4 antibody for 30 min at 4° C., followed by treatment with PEG-SMRwt-Clu peptide or PEG-SMRmut-Clu peptide or SMRwt-CPP peptide or SMRmut-CPP peptide alone, or treated with SMR peptide combined with complement from normal human serum (NHS) or heat-inactivated normal human serum (NIS) for 60 min at 37° C. Percentage of cells lysed were determined by a trypan blue exclusion assay using the TC10™ Automated Cell Counter (Bio-Rad, Richmond Calif.). (FIG. 14, FIG. 15, Panel D).

[3] = test system: MDA-MB-231 breast cancer cells; assay: InnoCyte cell migration assay, MDA-MB-231; conditions: MDA-MB-231 cells, 280 nM SMR peptide or 3 μM Latrunculin A, 24 hours
Method: 7-12. Cell migration assay. Cell migration assays were performed using the InnoCyte Cell Migration Assay (EMD Millipore Corporation, Temecula, Calif.) according to the manufacturer's instructions. Briefly, cell migration was monitored in the presence and absence of SMRwt peptides or latrunculin A (positive control inhibitor), which were added to the lower chamber of a 96-well plate. MCF-7 and MDA-MB-231 breast cancer cells and non-tumorigenic MCF-10A breast cells were harvested by 0.25% Trypsin-EDTA (Life Technologies) release and resuspended at 250,000500,000 cells/ml in serum-free RPMI 1640 media. A total of 25,000-50,000 cells was added to the upper chamber and allowed to migrate through an 8-μm pore-size membrane for 24 hours at 37° C. in a 5% CO2 atmosphere. Cells that migrated through the membrane were detached and labeled with Calcein-AM fluorescent dye. Fluorescence was measured using a Fluorescence Plate Reader (Molecular Devices, Sunnyvale, Calif.) with an excitation wavelength of 485 nm and an emission wavelength of 515 nm. The experiment was repeated in triplicate, and each conditioned experiment was performed in quadruplicate.

Sequence	average AChE concentration day 1 to 5 [1]	cell death under complement-positive conditions [2]	cell death under complement-negative conditions [2]	reduced migration by [3]	AchE activity in exosomes ([1]; MDA-MB-231 cells treated 48 hr, control exosomes 118.48 mU/mL)
VGFPVAAVGFPVGRKKRRQRRRPPQ [SMRwt-CPP]	29 mU/mL	23%	4.3%	46.39%	
NXNVGFPVAAVGFPVHPLSKHPYWSQP (SEQ ID NO: 37) [PEG-SMRwt-Clu]	42 mU/mL	55%	4.3%	52.37%	66.77 mU/mL

Reference: patent publication US11472846B2, “Compositions and methods for treating diseases by inhibiting exosome release” (priority 2016, dated 2022)
